{"source": "paper PMC11226190", "about": "(Drug Design, Development and Therapy, 2024)", "origin": "cited, not measured here", "conditions": "comparable publication", "data": [{"smiles": "NC(=O)CI", "note": "[Iodoacetamide]", "values": [{"measurement": "second order rate constant, DTNB assay", "result": 2.5, "unit": "M⁻¹ s⁻¹"}]}]}
